# Source: patent US9132131B2, “Use of adenosine A3 receptor agonists for treatment of neuropathic pain” (Saint Louis University, priority 2011, dated 2015)
# “And” between values parts separate entries of the source, which are not always exact repeats. Equal entries are not always repeated. Where two headings read alike, the source gives them in different places.
# What was measured:
# [1] = system: CCI of the sciatic nerve (mechano-allodynia); assay: CCI model of neuropathic pain, mechano-allodynia (von Frey PWT); format: in vivo, mice; settings: for reversal of mechano-allodynia in ipsilateral paws: single dose D7, IB-MECA 0.2-2, CI-IB-MECA 0.6, MRS1898 0.5 μmol/kg i.p., morphine 0.11-35 s.c., gabapentin 18-584 i.p., amitriptyline 3-191 μmol/kg oral; for effect of antagonist pretreatment on anti-allodynic effect of CI-IB-MECA or MRS1898: 15 min before CI-IB-MECA 0.6 or MRS1898 0.5 μmol/kg, DPCPX and SCH-442416 with MRS1898 only; for effect of antagonist pretreatment on anti-allodynic effect of IB-MECA: 15 min before IB-MECA 0.5 μmol/kg, MRS1523 5, DPCPX 2, SCH-442416 0.2 μmol/kg; for effect of antagonist given alone on ipsilateral or contralateral PWT: MRS1523 5, DPCPX 2, SCH-442416 0.2, naloxone 25 μmol/kg; for efficacy of IB-MECA compared with this drug: D7, time of peak reversal (FIG. 7); for ED50: Mus musculus, read-out: ED50, reversal of mechano-allodynia; for time of maximal reversal of mechano-allodynia: after single administration on D7; for ED50 at peak reversal of mechano-allodynia when combined with IB-MECA: co-administered with IB-MECA 0.2 μmol/kg; for fold less potent than IB-MECA in reversing mechano-allodynia: ratio of ED50 values, D7, time of peak reversal
# Description: CCI model of neuropathic pain. CCI to the sciatic nerve of the left hind leg in mice was performed under general anaesthesia using the well-characterized Bennett model. Briefly, mice (weighing 25-30 g at the time of surgery) were anesthetized with 3% isoflurane/100% O2 inhalation and maintained on 2% isoflurane/100% O2 for the duration of surgery. The left thigh was shaved, scrubbed with Nolvasan® and a small incision (1-1.5 cm in length) was made in the middle of the lateral aspect of the left thigh to expose the sciatic nerve. The nerve was loosely ligated around the entire diameter of the nerve at three distinct sites (spaced 1 mm apart) using silk sutures (6.0). The surgical site was closed with a single muscle suture and a skin clip. Pilot studies established that under our experimental conditions peak mechano-allodynia develops by day 5-day 7 (D5-D7) following CCI. Test substances or their vehicles were given subcutaneously (s.c.), intraperitoneally (i.p.) or orally by gavage (0.1 ml) at peak mechano-allodynia (D7).
# Behavioral testing. […] The plantar aspect of hindpaws were probed three times with calibrated von Frey filaments (Stoelting, mice: 0.07-2.00 grams; rats: 0.407-26 grams) according to the “up-and-down” method. […] Briefly, each rat was placed in a Plexiglas chamber (28×40×35-cm, wire mesh floor) and after its acclimation, a servo-controlled mechanical stimulus was applied to the plantar surface that exerted a progressively increasing punctate pressure up to 50 grams within 10 seconds. Mechanical threshold was assessed three times at each time point to yield a mean value, reported as PWT (grams). […] Mechano-hyperalgesia was assessed in rats by the Randall and Sellitto paw pressure test using an analgesiometer (Ugo Basile). The nociceptive threshold was defined as the force (grams) at which the rat withdrew its paw (cut off set at 250 grams).
# Determining ED50 values. Dose response data were curve-fitted using the least sum of square method by a normalized 4-parameter, variable slope non-linear analysis of the % Reversal of Mechano-allodynia in CCI and % Prevention of Mechano-allodynia or Mechano-hyperalgesia in CIPN using GraphPad Prism (Release 5.03, GraphPad Software, Inc.) from which the ED50 was determined and reported with the 95% confidence interval (95% CI). In the CCI model, the % Reversal of Mechano-allodynia=(PWT1h−PWTD7)/(PWTD0−PWTD7)×100, where PWTD0=Paw Withdrawal Threshold (g) at D0, PWT1h=Paw Withdrawal Threshold (g) at 1 hour after the administration of IB-MECA, gabapentin, amitriptyline, or combinations of IB-MECA with gabapentin or amitriptyline, and PWTD7=Paw Withdrawal Threshold (grams) at D7 prior to drug administration.
# Statistical Analysis. Data are expressed as mean±SD for n animals. Behavioral data were analyzed by two-way repeated measures ANOVA with Bonferroni comparisons (full time course studies) or one-way ANOVA Dunnett's comparisons (1 hour behavioral data). The dose response curves were compared to a globally fitted curve using the extra sum-of-squares F-test comparisons to determine whether the data represented distinct curves between treatments. Significant differences were defined at a P<0.05. All statistical analysis was performed using GraphPad Prism (v5.03, GraphPad Software, Inc.).
# [2] = system: paclitaxel-induced neuropathic pain; assay: Paclitaxel-induced neuropathic pain (mechano-allodynia, mechano-hyperalgesia); format: in vivo, rats
# [3] = system: A3ARs; settings: cited from earlier work
# [4] = system: SKBR3 breast cancer cells; assay: MTT cell survival assay, SKBR3; format: cell-based, human; settings: 48 hours, MTT, SKBR3
# Description: Cells were cultured and assayed in DMEM (SKBR3; human breast cancer cells), L15 (SW480; human colon cancer cells) or RPMI […] (RPMI 8226; human multiple myeloma cells) supplemented with heat-denatured 10% FBS and penicillin/streptomycin at 37° C., 0% (SW480) or 5% CO2 (SKBR3 and RPMI 8226), 95% humidity. The antitumor activities of these agents were measured in cells (6.25×10^4 cells/well) cultured overnight in 24-well plates (SKBR3 and SW480; BD Biosciences) or 12 mm×7.5 mm culture tubes (RPMI 8226; BD Biosciences) in complete media. […] Two naïve control wells were included as a control for 100% survival. Cell survival was determined using a MTT (3-(4,5-dimethylthiazol-2-yl)-2,5-diphenyltetrazolium bromide) assay adapted from a previously described assay. Cells were incubated with MTT (500 μg/ml) for 75 minutes at 37° C., 0% or 5% CO2, 95% humidity, removing the media and dissolving the tetrazolium crystals in isopropanol. […] The antitumor effects of IB-MECA alone were determined as % Survivability=(A560-570 nm of chemotherapeutic vehicle+IB-MECA)/(mean A560-570 nm of the naïve control wells)×100. The LD50 of each chemotherapeutic agent+IB-MECA or its vehicle was calculated using three-parameter non-linear analysis using % Survivability=(A560-570 nm of chemotherapeutic+IB-MECA or its vehicle)/(mean A560-570 nm chemotherapeutic vehicle+vehicle of IB-MECA)×100. The top and bottom plateaus were constrained using GraphPad Prism v5.03 (GraphPad Software, Inc.).
# [5] = cited from earlier work
# [6] = system: acute nociception (tail flick latency); assay: Tail flick assay for acute nociception; format: in vivo, mice; settings: IB-MECA, MRS1898 0.5 μmol/kg i.p. at 30, 60, 120 minutes; morphine 35 μmol/kg s.c. positive control
# Description: Tail flick and hot plate assay in mice for acute nociception. The tail flick test, which measures latency(s) of tail withdrawal from a noxious radiant heat source (Ugo Basile; model number 37360) was used to measure thermal nociceptive sensitivity in mice with baseline latencies of 3-5 seconds and a cut-off time of 15 seconds to prevent tissue injury. Tail flick latencies were taken before and at 30, 60 and 120 minutes after i.p. injection of IB-MECA, MRS1898 (0.5 μmol/kg) or its vehicle (0.1% DMSO in saline). For the hot plate test, nociceptive thresholds were determined as previously reported by our group by measuring latencies (in seconds) of mice placed in a transparent glass cylinder on a hot plate maintained at 52° C.. Responses indicative of nociception included intermittent lifting and/or licking of the hindpaws or escape behavior. Hot plate latencies were taken in mice from all groups before and after drug administration. A cut-off latency of 15 seconds was employed to prevent tissue damage.
# [7] = co-administered IB-MECA 0.2 μmol/kg, D7
smiles,measurement,setting,value
"CNC(=O)[C@H]1O[C@@H](n2cnc3c(NCc4cccc(I)c4)nc(Cl)nc32)[C@H](O)[C@@H]1O [CI-IB-MECA, 2-chloro-N^6-(3-iodobenzyl)-adenosine-5′-N-methyluronamide]",effect on PWT in contralateral paws,"[1]; D7 after CCI, drug alone",had no effect
same,reversal of mechano-allodynia in ipsilateral paws,[1],reversed mechano-allodynia
same,effect on paclitaxel-induced neuropathic pain,[2]; 0.2 μmol/kg/d (not shown),completely blocked
"CCCn1c(=O)c2[nH]c(C3CCCC3)nc2n(CCC)c1=O [DPCPX, 8-cyclopentyl-1,3-dipropylxanthine]",effect of antagonist pretreatment on anti-allodynic effect of CI-IB-MECA or MRS1898,[1],did not prevent
same,effect of antagonist pretreatment on anti-allodynic effect of IB-MECA,[1],not affected
same,effect of antagonist given alone on ipsilateral or contralateral PWT,[1]; D7,lacked effect
"CCCOC(=O)c1c(-c2ccccc2)nc(CC)c(C(=O)SCC)c1CCC [MRS1523, 3-propyl-6-ethyl-5[(ethylthio)carbonyl]-2-phenyl-4-propyl-3-pyridine-carboxylate]",selectivity against A1AR,[3],moderate selectivity
same,selectivity against A2AAR and A2BAR,[3],at least 1000 fold
same,binding to A3ARs,[3]; murine and rat,high affinity
same,effect of antagonist pretreatment on anti-allodynic effect of CI-IB-MECA or MRS1898,[1],blocked
same,effect of antagonist pretreatment on anti-allodynic effect of IB-MECA,[1],prevented
same,effect of antagonist given alone on ipsilateral or contralateral PWT,[1]; D7,lacked effect
same,effect on PWT when administered alone (vehicle groups),"[2]; IB-MECA 0.2 μmol/kg/d in any of the chemotherapy models, MRS1523 5 μmol/kg/d",lacked effect
same,effect of co-administered antagonist on the effects of IB-MECA,[2]; MRS1523 5 μmol/kg/d with IB-MECA 0.2 μmol/kg/d,prevented
CC(=O)O[C@H]1C(=O)[C@@]2(C)[C@H]([C@H](OC(=O)c3ccccc3)[C@]3(O)C[C@H](OC(=O)[C@H](O)[C@@H](NC(=O)c4ccccc4)c4ccccc4)C(C)=C1C3(C)C)[C@]1(OC(C)=O)CO[C@@H]1C[C@@H]2O [Paclitaxel],LD50,[4],7.0 nM
"COc1ccc(CCCn2ncc3c2nc(N)n2nc(-c4ccco4)nc32)cc1 [SCH-442416, 2-(2-furanyl)-7-[3-(4-methoxyphenyl)propyl]-7Hpyrazolo[4,3-e][1,2,4]triazolo[1,5-C]pyrimidin-5-amine]",effect of antagonist pretreatment on anti-allodynic effect of CI-IB-MECA or MRS1898,[1],did not prevent
same,effect of antagonist pretreatment on anti-allodynic effect of IB-MECA,[1],not affected
same,effect of antagonist given alone on ipsilateral or contralateral PWT,[1]; D7,lacked effect
CN(C)CCC=C1c2ccccc2CCc2ccccc21 [amitriptyline],efficacy of IB-MECA compared with this drug,[1],equiefficacious
same,effect on PWT in contralateral paws,"[1]; D7 after CCI, drug alone",had no effect
same,ED50,[1],31 µmol/kg
same,time of maximal reversal of mechano-allodynia,[1],1 h
same,increase of potency by IB-MECA,[1]; [7],2 fold
same,ED50 at peak reversal of mechano-allodynia when combined with IB-MECA,"[1]; mice, D7 after CCI",13 µmol/kg
same,fold less potent than IB-MECA in reversing mechano-allodynia,[1],> 75 fold and 75 fold
same,reversal of mechano-allodynia in ipsilateral paws,[1],dose-dependent reversal of mechano-allodynia
N.N.O=C([O-])C1(C(=O)[O-])CCC1.[Pt+2] [carboplatin],incidence of CIPN,[5]; subjects receiving the drug,40%
N.N.[Cl][Pt][Cl] [cisplatin],incidence of CIPN,[5]; in vivo,70-90%
CC(=O)O[C@@]12CO[C@@H]1C[C@H](O)[C@@]1(C)C(=O)[C@H](O)C3=C(C)[C@@H](OC(=O)[C@H](O)[C@@H](NC(=O)OC(C)(C)C)c4ccccc4)C[C@@](O)([C@@H](OC(=O)c4ccccc4)[C@H]21)C3(C)C [docetaxel],incidence of CIPN,[5]; subjects receiving the drug,60%
"NCC1(CC(=O)O)CCCCC1 [gabapentin, 2-[1-(aminomethyl)cyclohexyl]acetic acid]",efficacy of IB-MECA compared with this drug,[1],equiefficacious
same,effect on PWT in contralateral paws,"[1]; D7 after CCI, drug alone",had no effect
same,ED50,[1],140 µmol/kg
same,time of maximal reversal of mechano-allodynia,[1],1 h
same,increase of potency by IB-MECA,[1]; [7],> 5 fold
same,ED50 at peak reversal of mechano-allodynia when combined with IB-MECA,"[1]; mice, D7 after CCI",27 µmol/kg
same,fold less potent than IB-MECA in reversing mechano-allodynia,[1],> 350 fold
same,reversal of mechano-allodynia in ipsilateral paws,[1],dose-dependent reversal of mechano-allodynia
CN1CC[C@]23c4c5ccc(O)c4O[C@H]2[C@@H](O)C=C[C@H]3[C@H]1C5 [morphine],effect on tail flick latency,[6],significant (P<0.001) increase in tail flick latencies
same,efficacy of IB-MECA compared with this drug,[1],more efficacious
same,effect on PWT in contralateral paws,"[1]; D7 after CCI, drug alone",not in contralateral paws
same,ED50,[1],2.1 µmol/kg
same,time of maximal reversal of mechano-allodynia,[1],0.5 h
same,enhancement of efficacy by IB-MECA,[1]; [7],1.6 fold
same,increase of potency by IB-MECA,[1]; [7],> 2 fold
same,"Emax, reversal of mechano-allodynia","[1]; mice, D7 after CCI, drug alone",62±3%
same,ED50 at peak reversal of mechano-allodynia when combined with IB-MECA,"[1]; mice, D7 after CCI",0.98 µmol/kg
same,fold less potent than IB-MECA in reversing mechano-allodynia,[1],> 5 fold and 5 fold
same,reversal of mechano-allodynia in ipsilateral paws,[1],dose-dependent reversal of mechano-allodynia
C=CCN1CC[C@]23c4c5ccc(O)c4O[C@H]2C(=O)CC[C@@]3(O)[C@H]1C5 [naloxone],effect of antagonist given alone on ipsilateral or contralateral PWT,[1]; D7,did not affect
same,effect of naloxone on reversal of mechano-allodynia by A3AR agonists,[1]; naloxone 25 μmol/kg i.p. 15 minutes before IB-MECA or MRS1898 0.5 μmol/kg,did not interfere
